Experimental data as given in PubChem BioAssay AID248 (DTP/NCI, 2004).
Values joined by “and” are separate entries in the source; they are usually repeats but may differ in a detail not shown here. Identical values can stand only once. Toxic doses and inconclusive results are not listed. Rule as the data show it: active = T/C of 150% or more; inactive = T/C below 125%.

System: L1210 leukemia ip in BDF1 mice, survival T/C
Assay: NCI In Vivo Anticancer Drug Screen. Data for tumor model L1210 Leukemia (intraperitoneal) in B6D2F1 (BDF1) mice
Conditions: endpoint: mean survival time, higher = longer survival
How it was run: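 Tumor cells were implanted, animals were treated, and survival was followed. The result divides the treated measurement by the vehicle-control measurement.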

[1] = dose: 25.0 mg/kg/injection, schedule: Q01DX009 (ip), vehicle: saline
[2] = dose: 50.0 mg/kg/injection, schedule: Q01DX009 (ip), vehicle: saline
[3] = dose: 100.0 mg/kg/injection, schedule: Q01DX009 (ip), vehicle: saline
[4] = dose: 100.0 mg/kg/injection, schedule: Q01DX009 (ip), vehicle: Klucel (hydroxypropylcellulose) (HPC)
[5] = dose: 100.0 mg/kg/injection, schedule: Q04DX003 (ip), vehicle: Klucel (hydroxypropylcellulose) (HPC)
[6] = dose: 200.0 mg/kg/injection, schedule: Q01DX009 (ip), vehicle: Klucel (hydroxypropylcellulose) (HPC)
[7] = dose: 200.0 mg/kg/injection, schedule: Q04DX003 (ip), vehicle: Klucel (hydroxypropylcellulose) (HPC)
[8] = dose: 400.0 mg/kg/injection, schedule: Q01DX009 (ip), vehicle: Klucel (hydroxypropylcellulose) (HPC)
[9] = dose: 400.0 mg/kg/injection, schedule: Q04DX003 (ip), vehicle: Klucel (hydroxypropylcellulose) (HPC)
[10] = dose: 100.0 mg/kg/injection, schedule: Q01DX009 (ip), vehicle: gum acacia
[11] = dose: 100.0 mg/kg/injection, schedule: Q04DX003 (ip), vehicle: gum acacia
[12] = dose: 200.0 mg/kg/injection, schedule: Q01DX009 (ip), vehicle: gum acacia
[13] = dose: 200.0 mg/kg/injection, schedule: Q04DX003 (ip), vehicle: gum acacia
[14] = dose: 100.0 mg/kg/injection, schedule: Q04DX002 (ip), vehicle: Klucel (hydroxypropylcellulose) (HPC)
[15] = dose: 200.0 mg/kg/injection, schedule: Q04DX002 (ip), vehicle: Klucel (hydroxypropylcellulose) (HPC)
[16] = dose: 400.0 mg/kg/injection, schedule: Q04DX002 (ip), vehicle: Klucel (hydroxypropylcellulose) (HPC)
[17] = dose: 100.0 mg/kg/injection, schedule: Q01DX001 (ip), vehicle: Klucel (hydroxypropylcellulose) (HPC)
[18] = dose: 200.0 mg/kg/injection, schedule: Q01DX001 (ip), vehicle: Klucel (hydroxypropylcellulose) (HPC)
[19] = dose: 400.0 mg/kg/injection, schedule: Q01DX001 (ip), vehicle: Klucel (hydroxypropylcellulose) (HPC)
[20] = dose: 100.0 mg/kg/injection, schedule: Q04DX003 (ip), vehicle: saline with Tween-80
[21] = dose: 200.0 mg/kg/injection, schedule: Q04DX003 (ip), vehicle: saline with Tween-80
[22] = dose: 100.0 mg/kg/injection, schedule: Q01DX001 (ip), vehicle: saline
[23] = dose: 100.0 mg/kg/injection, schedule: Q04DX003 (ip), vehicle: saline
[24] = dose: 200.0 mg/kg/injection, schedule: Q01DX001 (ip), vehicle: saline
[25] = dose: 200.0 mg/kg/injection, schedule: Q01DX009 (ip), vehicle: saline
[26] = dose: 200.0 mg/kg/injection, schedule: Q04DX003 (ip), vehicle: saline
[27] = dose: 400.0 mg/kg/injection, schedule: Q01DX009 (ip), vehicle: saline
[28] = dose: 25.0 mg/kg/injection, schedule: Q04DX003 (ip), vehicle: saline
[29] = dose: 50.0 mg/kg/injection, schedule: Q04DX003 (ip), vehicle: saline
[30] = dose: 400.0 mg/kg/injection, schedule: Q04DX003 (ip), vehicle: saline with Tween-80

Measured: T/C

NC(N)=NC(N)=Nc1ccc([As](=O)(O)O)c(O)c1
inactive: [1] 101 % of control | dose: 40.0 mg/kg/injection, schedule: Q01DX009 (ip), vehicle: Klucel (hydroxypropylcellulose) (HPC) 108 % of control | [2] 98 % of control | dose: 80.0 mg/kg/injection, schedule: Q01DX009 (ip), vehicle: Klucel (hydroxypropylcellulose) (HPC) 101 % of control | [3] 108 % of control | dose: 160.0 mg/kg/injection, schedule: Q01DX009 (ip), vehicle: Klucel (hydroxypropylcellulose) (HPC) 104 % of control

CC1(CCBr)NC(=O)NC1=O (stereo not given)
inactive: [4] 121 % of control | [5] 98 % of control | [6] 101 % of control | [7] 119 % of control | [8] 95 % of control | [9] 107 % of control

Cc1ccc(NC(=O)Nc2ccccc2Cl)cc1
inactive: [10] 86 % of control | [11] 89 % of control | [12] 94 % of control | [13] 89 % of control | dose: 400.0 mg/kg/injection, schedule: Q01DX009 (ip), vehicle: gum acacia 94 % of control | dose: 400.0 mg/kg/injection, schedule: Q04DX003 (ip), vehicle: gum acacia 98 % of control

C=CCc1c[nH]c(=S)[nH]c1=O.[Hg]
inactive: dose: 3.12 mg/kg/injection, schedule: Q01DX001 (ip), vehicle: Klucel (hydroxypropylcellulose) (HPC) 98 % of control | dose: 6.0 mg/kg/injection, schedule: Q01DX009 (ip), vehicle: Klucel (hydroxypropylcellulose) (HPC) 98 % of control | dose: 6.0 mg/kg/injection, schedule: Q04DX003 (ip), vehicle: Klucel (hydroxypropylcellulose) (HPC) 97 % of control | dose: 6.25 mg/kg/injection, schedule: Q01DX001 (ip), vehicle: Klucel (hydroxypropylcellulose) (HPC) 98 % of control | dose: 12.0 mg/kg/injection, schedule: Q01DX009 (ip), vehicle: Klucel (hydroxypropylcellulose) (HPC) 94 % of control | dose: 12.0 mg/kg/injection, schedule: Q04DX003 (ip), vehicle: Klucel (hydroxypropylcellulose) (HPC) 100 % of control | dose: 12.5 mg/kg/injection, schedule: Q01DX001 (ip), vehicle: Klucel (hydroxypropylcellulose) (HPC) 93 % of control and 96 % of control | dose: 50.0 mg/kg/injection, schedule: Q01DX001 (ip), vehicle: Klucel (hydroxypropylcellulose) (HPC) 93 % of control

CNC(=S)N/N=C(\C=N\NC(=S)NC)c1ccc(C)cc1
inactive: [14] 106 % of control | [15] 100 % of control | [16] 103 % of control

Nc1cccc2ccc3ccc4ccccc4c3c12
inactive: [17] 105 % of control | [18] 94 % of control | [19] 97 % of control

Cc1ccc(NC(=O)OCCCl)c([N+](=O)[O-])c1
inactive: [17] 106 % of control | [4] 96 % of control and 100 % of control | [14] 97 % of control and 102 % of control | [5] 98 % of control | [18] 101 % of control | [6] 94 % of control and 111 % of control | [15] 96 % of control and 97 % of control | [7] 93 % of control | [19] 98 % of control | [8] 94 % of control and 91 % of control | [16] 97 % of control and 98 % of control | [9] 111 % of control

COc1ccc(C2CCC(=O)CC2(O)C(=O)O)cc1 (stereo not given)
inactive: [4] 91 % of control | [5] 98 % of control | [6] 88 % of control | [7] 102 % of control | [8] 98 % of control | [9] 100 % of control

COc1ccc(-c2nc(N)ncc2CSC)cc1
inactive: [20] 101 % of control | [21] 86 % of control

CN(C)c1nc(N)nc(Nc2ccc(Br)cc2)c1N=O
inactive: dose: 50.0 mg/kg/injection, schedule: Q01DX001 (ip), vehicle: carboxymethylcellulose (CMC) 109 % of control | dose: 100.0 mg/kg/injection, schedule: Q01DX001 (ip), vehicle: carboxymethylcellulose (CMC) 95 % of control | [22] 105 % of control | [3] 107 % of control | [23] 107 % of control | dose: 200.0 mg/kg/injection, schedule: Q01DX001 (ip), vehicle: carboxymethylcellulose (CMC) 103 % of control | [24] 116 % of control | [25] 119 % of control | [26] 98 % of control | dose: 400.0 mg/kg/injection, schedule: Q01DX001 (ip), vehicle: carboxymethylcellulose (CMC) 95 % of control | dose: 400.0 mg/kg/injection, schedule: Q01DX001 (ip), vehicle: saline 116 % of control | [27] 109 % of control | dose: 400.0 mg/kg/injection, schedule: Q04DX003 (ip), vehicle: saline 96 % of control

C1CC[N+]2(CC1)CCC2
inactive: dose: 12.0 mg/kg/injection, schedule: Q04DX003 (ip), vehicle: saline 106 % of control | dose: 12.5 mg/kg/injection, schedule: Q01DX009 (ip), vehicle: saline 97 % of control | [1] 100 % of control | [28] 94 % of control | [2] 100 % of control | [29] 111 % of control | [22] 107 % of control | [24] 115 % of control

Nc1ccc2ccccc2c1S(=O)(=O)O
inactive: [20] 98 % of control | [21] 95 % of control | [30] 98 % of control

O=C1NC(=O)C2C3C=CC(O3)C12 (stereo not given)
inactive: [3] 106 % of control | [25] 95 % of control | [27] 97 % of control

O=C(C[n+]1cccc2ccccc21)c1ccc(-c2ccc(C(=O)C[n+]3cccc4ccccc43)cc2)cc1
inactive: dose: 0.13 mg/kg/injection, schedule: Q04DX003 (ip), vehicle: saline 103 % of control | dose: 0.25 mg/kg/injection, schedule: Q04DX003 (ip), vehicle: saline 103 % of control | dose: 0.5 mg/kg/injection, schedule: Q04DX003 (ip), vehicle: saline 102 % of control

CCC1C(=O)OCc2c1ccn(C)c2=O (stereo not given)
inactive: dose: 25.0 mg/kg/injection, schedule: Q01DX001 (ip), vehicle: saline 114 % of control | [28] 95 % of control | dose: 50.0 mg/kg/injection, schedule: Q01DX001 (ip), vehicle: saline 104 % of control | [29] 95 % of control | [22] 103 % of control | [23] 101 % of control | [24] 106 % of control | [26] 101 % of control

CCC1(CCCCBr)OCCO1
inactive: [17] 103 % of control | [18] 100 % of control | [19] 93 % of control

CC[N+](C)(CC)CCCOC(=O)C(c1ccccc1)c1ccccc1
inactive: dose: 6.25 mg/kg/injection, schedule: Q04DX003 (ip), vehicle: saline 94 % of control | dose: 12.5 mg/kg/injection, schedule: Q04DX003 (ip), vehicle: saline 96 % of control | [28] 96 % of control

CC(C)(C)C1CCC(C(=O)O)CC1 (stereo not given)
inactive: dose: 50.0 mg/kg/injection, schedule: Q01DX009 (ip), vehicle: gum acacia 102 % of control | [10] 103 % of control | dose: 100.0 mg/kg/injection, schedule: Q01DX009 (ip), vehicle: saline with Tween-80 95 % of control and 97 % of control | dose: 100.0 mg/kg/injection, schedule: Q04DX002 (ip), vehicle: gum acacia 100 % of control | [11] 106 % of control | [20] 102 % of control and 89 % of control | [12] 105 % of control | dose: 200.0 mg/kg/injection, schedule: Q01DX009 (ip), vehicle: saline with Tween-80 94 % of control and 97 % of control | dose: 200.0 mg/kg/injection, schedule: Q04DX002 (ip), vehicle: gum acacia 110 % of control | [13] 106 % of control | [21] 100 % of control and 94 % of control | dose: 400.0 mg/kg/injection, schedule: Q01DX009 (ip), vehicle: saline with Tween-80 97 % of control | dose: 400.0 mg/kg/injection, schedule: Q04DX002 (ip), vehicle: gum acacia 110 % of control | [30] 89 % of control
